ChEMBL document CHEMBL2086254, “Synthesis and identification of novel indolo[2,3-a]pyrimido[5,4-c]carbazoles as a new class of anti-cancer agents” (Eur J Med Chem, 2012)
Activity calls are given as the source filed them. The calls are words filed in the database; no cut-off is given here.

Assays:
[1] = tested on: HCC 2998; test: Cytotoxicity against human HCC2998 cells assessed as cell growth at 10 uM after 48 hrs by SRB assay relative to control; format: functional; settings: HCC 2998, 48 h, read-out: Activity
[2] = tested on: 786-0; test: Cytotoxicity against human 786-0 cells assessed as cell growth at 10 uM after 48 hrs by SRB assay relative to control; format: functional; settings: 786-0, 48 h, read-out: Activity
[3] = tested on: OVCAR-5; test: Cytotoxicity against human OVCAR5 cells assessed as cell growth at 10 uM after 48 hrs by SRB assay relative to control; format: functional; settings: OVCAR-5, 48 h, read-out: Activity
[4] = tested on: PC-3; test: Cytotoxicity against human PC3 cells assessed as cell growth at 10 uM after 48 hrs by SRB assay relative to control; format: functional; settings: PC-3, 48 h, read-out: Activity
[5] = tested on: SN12C; test: Cytotoxicity against human SN12C cells assessed as cell growth at 10 uM after 48 hrs by SRB assay relative to control; format: functional; settings: read-out: Activity
[6] = tested on: MDA-MB-468; test: Cytotoxicity against human MDA-MB-468 cells assessed as cell growth at 10 uM after 48 hrs by SRB assay relative to control; format: functional; settings: MDA-MB-468, 48 h, read-out: Activity
[7] = tested on: SNB-75; test: Cytotoxicity against human SNB75 cells assessed as cell growth at 10 uM after 48 hrs by SRB assay relative to control; format: functional; settings: SNB-75, 48 h, read-out: Activity
[8] = tested on: NCI-H322M; test: Cytotoxicity against human NCI-H322M cells assessed as cell growth at 10 uM after 48 hrs by SRB assay relative to control; format: functional; settings: read-out: Activity
[9] = tested on: SF-539; test: Cytotoxicity against human SF539 cells assessed as cell growth at 10 uM after 48 hrs by SRB assay relative to control; format: functional; settings: SF-539, 48 h, read-out: Activity
[10] = tested on: COLO 205; test: Cytotoxicity against human COLO205 cells assessed as cell growth at 10 uM after 48 hrs by SRB assay relative to control; format: functional; settings: COLO 205, 48 h, read-out: Activity
[11] = tested on: HT-29; test: Cytotoxicity against human HT-29 cells assessed as cell growth at 10 uM after 48 hrs by SRB assay relative to control; format: functional; settings: HT-29, 48 h, read-out: Activity
[12] = tested on: KM12; test: Cytotoxicity against human KM12 cells assessed as cell growth at 10 uM after 48 hrs by SRB assay relative to control; format: functional; settings: KM12, 48 h, read-out: Activity
[13] = tested on: NCI-H522; test: Cytotoxicity against human NCI-H522 cells assessed as cell growth at 10 uM after 48 hrs by SRB assay relative to control; format: functional; settings: NCI-H522, 48 h, read-out: Activity
[14] = tested on: SK-MEL-5; test: Cytotoxicity against human SK-MEL-5 cells assessed as cell growth at 10 uM after 48 hrs by SRB assay relative to control; format: functional; settings: SK-MEL-5, 48 h, read-out: Activity
[15] = tested on: OVCAR-4; test: Cytotoxicity against human OVCAR4 cells assessed as cell growth at 10 uM after 48 hrs by SRB assay relative to control; format: functional; settings: OVCAR-4, 48 h, read-out: Activity
[16] = tested on: NCI-H460; test: Cytotoxicity against human NCI-H460 cells assessed as cell growth at 10 uM after 48 hrs by SRB assay relative to control; format: functional; settings: NCI-H460, 48 h, read-out: Activity
[17] = tested on: CCRF-CEM; test: Cytotoxicity against human CCRF-CEM cells assessed as cell growth at 10 uM after 48 hrs by SRB assay relative to control; format: functional; settings: read-out: Activity
[18] = tested on: HL-60; test: Cytotoxicity against human HL60 cells assessed as cell growth at 10 uM after 48 hrs by SRB assay relative to control; format: functional; settings: HL-60, 48 h, read-out: Activity
[19] = tested on: MDA-MB-231; test: Cytotoxicity against human MDA-MB-231 cells assessed as cell growth at 10 uM after 48 hrs by SRB assay relative to control; format: functional; settings: MDA-MB-231, 48 h, read-out: Activity
[20] = tested on: MOLT-4; test: Cytotoxicity against human MOLT4 cells assessed as cell growth at 10 uM after 48 hrs by SRB assay relative to control; format: functional; settings: MOLT-4, 48 h, read-out: Activity
[21] = tested on: OVCAR-3; test: Cytotoxicity against human OVCAR3 cells assessed as cell growth at 10 uM after 48 hrs by SRB assay relative to control; format: functional; settings: OVCAR-3, 48 h, read-out: Activity
[22] = tested on: SR; test: Cytotoxicity against human SR cells assessed as cell growth at 10 uM after 48 hrs by SRB assay relative to control; format: functional; settings: read-out: Activity
[23] = tested on: U-251; test: Cytotoxicity against human U251 cells assessed as cell growth at 10 uM after 48 hrs by SRB assay relative to control; format: functional; settings: U-251, 48 h, read-out: Activity
[24] = target: DNA topoisomerase 2-alpha (Homo sapiens) (UniProt P11388); test: Inhibition of human DNA topoisomerase 2 at 100 uM after 1 hr by agarose gel circular DNA decatenation assay
Chain of DNA topoisomerase 2-alpha (Homo sapiens) (P11388 whole entry): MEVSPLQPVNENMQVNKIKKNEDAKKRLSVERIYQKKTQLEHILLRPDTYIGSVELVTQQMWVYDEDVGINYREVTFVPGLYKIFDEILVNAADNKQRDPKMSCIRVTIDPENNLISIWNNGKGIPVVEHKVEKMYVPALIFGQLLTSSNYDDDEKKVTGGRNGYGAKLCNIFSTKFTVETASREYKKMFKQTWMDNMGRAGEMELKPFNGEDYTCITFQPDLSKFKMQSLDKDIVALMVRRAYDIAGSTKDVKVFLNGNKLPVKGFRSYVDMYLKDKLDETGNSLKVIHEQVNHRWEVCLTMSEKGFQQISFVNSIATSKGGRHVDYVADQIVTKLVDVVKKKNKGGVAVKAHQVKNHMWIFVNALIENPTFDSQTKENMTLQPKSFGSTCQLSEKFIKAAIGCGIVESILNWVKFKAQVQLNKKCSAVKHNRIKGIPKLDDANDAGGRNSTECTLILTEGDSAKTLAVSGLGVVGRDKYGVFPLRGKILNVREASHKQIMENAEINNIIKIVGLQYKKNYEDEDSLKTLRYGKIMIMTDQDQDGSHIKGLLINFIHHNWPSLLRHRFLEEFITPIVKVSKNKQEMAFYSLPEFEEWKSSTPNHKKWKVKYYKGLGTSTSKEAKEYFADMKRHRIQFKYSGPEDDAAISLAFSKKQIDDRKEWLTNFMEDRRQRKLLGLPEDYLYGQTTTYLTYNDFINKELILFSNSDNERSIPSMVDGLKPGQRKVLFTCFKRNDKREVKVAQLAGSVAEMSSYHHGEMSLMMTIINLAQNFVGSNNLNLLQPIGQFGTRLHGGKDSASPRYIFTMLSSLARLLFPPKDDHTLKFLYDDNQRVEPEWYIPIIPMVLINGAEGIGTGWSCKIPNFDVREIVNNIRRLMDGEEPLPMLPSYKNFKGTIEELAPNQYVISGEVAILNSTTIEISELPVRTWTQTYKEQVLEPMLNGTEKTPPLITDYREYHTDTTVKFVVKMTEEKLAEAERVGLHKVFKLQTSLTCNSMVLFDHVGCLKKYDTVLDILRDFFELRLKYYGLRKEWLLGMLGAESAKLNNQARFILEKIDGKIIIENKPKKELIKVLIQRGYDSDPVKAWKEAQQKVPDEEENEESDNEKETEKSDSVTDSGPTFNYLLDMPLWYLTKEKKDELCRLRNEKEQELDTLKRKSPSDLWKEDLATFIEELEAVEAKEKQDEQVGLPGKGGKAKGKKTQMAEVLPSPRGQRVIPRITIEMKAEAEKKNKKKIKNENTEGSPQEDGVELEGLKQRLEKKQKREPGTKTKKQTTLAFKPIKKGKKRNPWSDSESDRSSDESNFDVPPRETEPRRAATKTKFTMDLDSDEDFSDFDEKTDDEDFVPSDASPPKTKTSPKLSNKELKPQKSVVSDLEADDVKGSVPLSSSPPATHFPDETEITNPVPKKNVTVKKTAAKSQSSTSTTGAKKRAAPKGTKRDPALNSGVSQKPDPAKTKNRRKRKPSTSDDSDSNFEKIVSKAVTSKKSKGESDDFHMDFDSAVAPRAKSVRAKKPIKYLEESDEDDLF

Compound `Cn1cc(-c2c(-c3cn(C)c4ncccc34)nc(N)[nH]c2=O)c2ccccc21` has a growth at 10 µM [1] of 109%, a growth at 10 µM [2] of 106% and a growth at 10 µM [3] of 106%. The growth at 10 µM [4] was 84.2%, the growth at 10 µM [5] was 104% and the growth at 10 µM [6] was 116%. The growth at 10 µM [7] was 87.5%, the growth at 10 µM [8] was 95.3% and the growth at 10 µM [9] was 104%. For the same compound, the growth at 10 µM [10] was 106%, the growth at 10 µM [11] was 98.5% and the growth at 10 µM [12] was 102%. For the same compound, the growth at 10 µM [13] was 88%, the growth at 10 µM [14] was 96.5% and the growth at 10 µM [15] was 88%. It also gave a growth at 10 µM [16] of 98.4%, a growth at 10 µM [17] of 92.5% and a growth at 10 µM [18] of 105%. The growth at 10 µM [19] was 96.4%, the growth at 10 µM [20] was 97.1% and the growth at 10 µM [21] was 99.7%. The growth at 10 µM [22] was 90.4% and the growth at 10 µM [23] was 77.5%.

In the case of `Cn1cc(-c2[nH]c(=S)[nH]c(=O)c2-c2cn(C)c3ccccc23)c2ccccc21`, the growth at 10 µM [1] is reported as 113%, the inhibition [24] is reported as “inactive” and the growth at 10 µM [2] is reported as 107%. It also gave a growth at 10 µM [3] of 107%, a growth at 10 µM [4] of 92.1% and a growth at 10 µM [5] of 103%. For the same compound, the growth at 10 µM [6] was 107%, the growth at 10 µM [7] was 85.7% and the growth at 10 µM [8] was 96.5%. The growth at 10 µM [9] was 99.1%, the growth at 10 µM [10] was 100% and the growth at 10 µM [11] was 112%. For the same compound, the growth at 10 µM [12] was 97.9%, the growth at 10 µM [13] was 96.7% and the growth at 10 µM [14] was 96.2%. The growth at 10 µM [15] was 103%, the growth at 10 µM [16] was 93% and the growth at 10 µM [17] was 99%. It also gave a growth at 10 µM [18] of 104%, a growth at 10 µM [19] of 91.7% and a growth at 10 µM [20] of 103%. For the same compound, the growth at 10 µM [21] was 98.7%, the growth at 10 µM [22] was 93.9% and the growth at 10 µM [23] was 89%.

In the case of `Cn1c2ccccc2c2c3c(=O)[nH]c(N)nc3c3c4cccnc4n(C)c3c21`, the growth at 10 µM [1] is reported as 104%, the inhibition [24] is reported as “inactive” and the growth at 10 µM [3] is reported as 98.8%. For the same compound, the growth at 10 µM [4] was 71%, the growth at 10 µM [5] was 91% and the growth at 10 µM [6] was 75.1%. It also gave a growth at 10 µM [7] of 74.1%, a growth at 10 µM [9] of 111% and a growth at 10 µM [11] of 78%. It also gave a growth at 10 µM [12] of 59%, a growth at 10 µM [13] of 35% and a growth at 10 µM [14] of 74.7%. For the same compound, the growth at 10 µM [15] was 80.1%, the growth at 10 µM [16] was 65.5% and the growth at 10 µM [17] was 65.3%. The growth at 10 µM [18] was 72.8%, the growth at 10 µM [19] was 79.4% and the growth at 10 µM [20] was 74.4%. It also gave a growth at 10 µM [21] of 98.2%, a growth at 10 µM [22] of 63.3% and a growth at 10 µM [23] of 81.2%.
